What was measured:
[1] = system: ORYSAT (Rice, Tebonnet); experiment: Flooded paddy, post-transplant rice tolerance; assay type: in vivo, Oryza sativa, (L.) Tebonnet
Method in brief: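 Two ten-day-old Tebonnet rice seedlings transplanted into silt loam, then flooded with water held at 1.5–3 cm above soil; herbicide applied post-transplant. Plants kept in greenhouse and rated visually 0–9 versus untreated control for stand, vigor, malformation, size and chlorosis.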

[2] = system: IPOHE (Ipomoea hederacea); experiment: Postemergence herbicidal evaluation; assay type: in vivo, (L.) Jacq.; details: postemergence
Method in brief: (§1)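 Visual 0–9 injury scores versus control plants, covering stand, vigour, malformation, size, chlorosis and general appearance, taken four to five weeks post-spray and averaged over replicate tests. Plants were sprayed at roughly two weeks old and held on greenhouse benches.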

[3] = system: ABUTH (Abutilon theophrasti); experiment: Preemergence herbicidal evaluation; assay type: in vivo, Medic.; details: preemergence, rated 4-5 weeks after treatment
[4] = system: AMBEL (Ambrosia artemisifolia); experiment: Preemergence herbicidal evaluation; assay type: in vivo, L.; details: preemergence, rated 4-5 weeks after treatment
Method in brief: (§2)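 Preemergence soil spray, aq. acetone; greenhouse; visual 0–9 score vs control at 4–5 wk.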

[5] = system: GALAP (Galium aparine); experiment: Preemergence herbicidal evaluation; assay type: in vivo; details: preemergence, rated 4-5 weeks after treatment
Method in brief: as §2

[6] = system: ZEAMX (Corn, Field); experiment: Postemergence herbicidal evaluation; assay type: in vivo, Zea mays, L.; details: postemergence
Method in brief: as §1

[7] = system: GLXMA (Soybean); experiment: Preemergence herbicidal evaluation; assay type: in vivo, Glycine max, (L.) Merr.; details: preemergence, rated 4-5 weeks after treatment
[8] = system: MOOVA (Monochoria vaginalis); experiment: Flooded paddy, preemergence weed control; assay type: in vivo, Presl.; details: rated 3-4 weeks after treatment, 0-9 rating scale
Method in brief: (§3)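 Silt loam, sowing depth ≤0.5 cm; permanent flood 1.5–3 cm above soil; greenhouse culture after treatment. Readout: 0-9 visual scale (stand, vigor, malformation, size, chlorosis, appearance) vs control.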

[9] = system: GLXMAW (Soybean, Williams); experiment: Postemergence herbicidal evaluation; assay type: in vivo, Glycine max, (L.) Merr. cv Williams; details: postemergence
Method in brief: as §1

[10] = system: ZEAMX (Corn, Field); experiment: Preemergence herbicidal evaluation; assay type: in vivo, Zea mays, L.; details: preemergence, rated 4-5 weeks after treatment
[11] = system: CHEAL (Chenopodium album); experiment: Postemergence herbicidal evaluation; assay type: in vivo, L.; details: postemergence
Method in brief: as §1

[12] = system: CASOB (Cassia obtusifolia); experiment: Postemergence herbicidal evaluation; assay type: in vivo, L.; details: postemergence
Method in brief: as §1

[13] = system: AMBEL (Ambrosia artemisifolia); experiment: Postemergence herbicidal evaluation; assay type: in vivo, L.; details: postemergence
Method in brief: as §1

[14] = system: ABUTH (Abutilon theophrasti); experiment: Postemergence herbicidal evaluation; assay type: in vivo, Medic.; details: postemergence
Method in brief: as §1

[15] = system: GALAP (Galium aparine); experiment: Postemergence herbicidal evaluation; assay type: in vivo; details: postemergence
Method in brief: as §1

[16] = system: ECHCG (Echinochloa crus-galli); experiment: Postemergence herbicidal evaluation; assay type: in vivo, (L.) Beau; details: postemergence
Method in brief: as §1

[17] = system: IPOHE (Ipomoea hederacea); experiment: Preemergence herbicidal evaluation; assay type: in vivo, (L.) Jacq.; details: preemergence, rated 4-5 weeks after treatment
[18] = system: SAGPY (Sagittaria pygmaea); experiment: Flooded paddy, preemergence weed control; assay type: in vivo, L.; details: rated 3-4 weeks after treatment, 0-9 rating scale
Method in brief: as §3

[19] = system: ECHCG (Echinochloa crus-galli); experiment: Preemergence herbicidal evaluation; assay type: in vivo, (L.) Beau; details: preemergence, rated 4-5 weeks after treatment
Method in brief: as §2

[20] = system: TRZAWR (Wheat, Winter, cv Riband); experiment: Postemergence herbicidal evaluation; assay type: in vivo, Triticum aestivum; details: postemergence
Method in brief: as §1

[21] = system: CYPIR (Cyperus iria); experiment: Flooded paddy, preemergence weed control; assay type: in vivo; details: rated 3-4 weeks after treatment, 0-9 rating scale
Method in brief: as §3

[22] = system: ECHORC (Echinochloa oryzoides); experiment: Flooded paddy, preemergence weed control; assay type: in vivo, Echinochloa oryzoides (Ard.) Fritsch.; details: rated 3-4 weeks after treatment, 0-9 rating scale
Method in brief: as §3

[23] = system: ORYSAT (Rice, Tebonnet); experiment: Postemergence herbicidal evaluation; assay type: in vivo, Oryza sativa, (L.) Tebonnet; details: postemergence
Method in brief: as §1

5-[5-[3,6-dihydro-3-methyl-2,6-dioxo-4-(trifluoromethyl)-1(2H)-pyrimidinyl]-1,2-benzisothiazol-3-yl]-1,6-hydro-6-oxo-2,3-pyrazinedicarbonitrile [Compound 91]
3.0: ZEAMX herbicidal rating ([6]; rate 0.1250 kg/ha) | CASOB herbicidal rating ([12]; rate 0.0620 kg/ha) | GALAP herbicidal rating ([15]; rate 0.0320 kg/ha) | GALAP herbicidal rating ([15]; rate 0.0620 kg/ha) | GALAP herbicidal rating ([15]; rate 0.1250 kg/ha)
6.0: GLXMAW herbicidal rating ([9]; rate 0.0320 kg/ha) | GLXMAW herbicidal rating ([9]; rate 0.0620 kg/ha) | GLXMAW herbicidal rating ([9]; rate 0.1250 kg/ha)
1.0: ORYSAT herbicidal rating ([23]; rate 0.1250 kg/ha)
4.0: CASOB herbicidal rating ([12]; rate 0.1250 kg/ha) | AMBEL herbicidal rating ([13]; rate 0.0320 kg/ha) | AMBEL herbicidal rating ([13]; rate 0.0620 kg/ha)
8.0: IPOHE herbicidal rating ([2]; rate 0.1250 kg/ha)
0.0: ORYSAT herbicidal rating (transplanted rice tolerance) ([1]; in vivo) | Preemergence herbicidal rating ABUTH ([3]; rate 0.0620 kg/ha) | Preemergence herbicidal rating ABUTH ([3]; rate 0.1250 kg/ha) | Preemergence herbicidal rating ABUTH ([3]; rate 0.2500 kg/ha) | Preemergence herbicidal rating AMBEL ([4]; rate 0.0620 kg/ha) | Preemergence herbicidal rating AMBEL ([4]; rate 0.1250 kg/ha) | Preemergence herbicidal rating AMBEL ([4]; rate 0.2500 kg/ha) | Preemergence herbicidal rating GALAP ([5]; rate 0.0620 kg/ha) | Preemergence herbicidal rating GALAP ([5]; rate 0.1250 kg/ha) | Preemergence herbicidal rating GALAP ([5]; rate 0.2500 kg/ha) | Preemergence herbicidal rating GLXMA ([7]; rate 0.0620 kg/ha) | Preemergence herbicidal rating GLXMA ([7]; rate 0.1250 kg/ha) | Preemergence herbicidal rating GLXMA ([7]; rate 0.2500 kg/ha) | MOOVA herbicidal rating ([8]; rate 0.0320 kg/ha) | MOOVA herbicidal rating ([8]; rate 0.1250 kg/ha) | Preemergence herbicidal rating ZEAMX ([10]; rate 0.0620 kg/ha) | Preemergence herbicidal rating ZEAMX ([10]; rate 0.1250 kg/ha) | Preemergence herbicidal rating ZEAMX ([10]; rate 0.2500 kg/ha) | CASOB herbicidal rating ([12]; rate 0.0320 kg/ha) | ECHCG herbicidal rating ([16]; rate 0.0320 kg/ha) | ECHCG herbicidal rating ([16]; rate 0.0620 kg/ha) | ECHCG herbicidal rating ([16]; rate 0.1250 kg/ha) | Preemergence herbicidal rating IPOHE ([17]; rate 0.0620 kg/ha) | Preemergence herbicidal rating IPOHE ([17]; rate 0.1250 kg/ha) | Preemergence herbicidal rating IPOHE ([17]; rate 0.2500 kg/ha) | SAGPY herbicidal rating ([18]; rate 0.0320 kg/ha) | SAGPY herbicidal rating ([18]; rate 0.1250 kg/ha) | Preemergence herbicidal rating ECHCG ([19]; rate 0.0620 kg/ha) | Preemergence herbicidal rating ECHCG ([19]; rate 0.1250 kg/ha) | Preemergence herbicidal rating ECHCG ([19]; rate 0.2500 kg/ha) | TRZAWR herbicidal rating ([20]; rate 0.0320 kg/ha) | TRZAWR herbicidal rating ([20]; rate 0.0620 kg/ha) | TRZAWR herbicidal rating ([20]; rate 0.1250 kg/ha) | CYPIR herbicidal rating ([21]; rate 0.0320 kg/ha) | CYPIR herbicidal rating ([21]; rate 0.1250 kg/ha) | ECHORC herbicidal rating ([22]; rate 0.0320 kg/ha) | ECHORC herbicidal rating ([22]; rate 0.1250 kg/ha) | ORYSAT herbicidal rating ([23]; rate 0.0320 kg/ha)
0.5: ORYSAT herbicidal rating ([23]; rate 0.0620 kg/ha)
5.0: AMBEL herbicidal rating ([13]; rate 0.1250 kg/ha) | ABUTH herbicidal rating ([14]; rate 0.0320 kg/ha)
1.5: ZEAMX herbicidal rating ([6]; rate 0.0320 kg/ha)
7.0: IPOHE herbicidal rating ([2]; rate 0.0320 kg/ha) | IPOHE herbicidal rating ([2]; rate 0.0620 kg/ha) | ABUTH herbicidal rating ([14]; rate 0.0620 kg/ha)
2.5: ZEAMX herbicidal rating ([6]; rate 0.0620 kg/ha)
9.0: CHEAL herbicidal rating ([11]; rate 0.0320 kg/ha) | CHEAL herbicidal rating ([11]; rate 0.0620 kg/ha) | CHEAL herbicidal rating ([11]; rate 0.1250 kg/ha) | ABUTH herbicidal rating ([14]; rate 0.1250 kg/ha)

COC1(c2nsc3ccc(-n4c(=O)cc(C(F)(F)F)n(C)c4=O)cc23)N=C(N(C)C)NC1=O (stereo not shown) [Compound 93, 3-[3-[2-(dimethylamino)-4-methoxy-5-oxo-2-imidazolin-4-yl]-1,2-benzisothiazol-5-yl]-1-methyl-6-(trifluoromethyl)uracil]
9.0: IPOHE herbicidal rating ([2]; rate 0.0320 kg/ha) | IPOHE herbicidal rating ([2]; rate 0.0620 kg/ha) | Preemergence herbicidal rating ABUTH ([3]; rate 0.0620 kg/ha) | Preemergence herbicidal rating ABUTH ([3]; rate 0.1250 kg/ha) | Preemergence herbicidal rating ABUTH ([3]; rate 0.2500 kg/ha) | Preemergence herbicidal rating AMBEL ([4]; rate 0.2500 kg/ha) | MOOVA herbicidal rating ([8]; rate 0.1250 kg/ha) | GLXMAW herbicidal rating ([9]; rate 0.0320 kg/ha) | GLXMAW herbicidal rating ([9]; rate 0.0620 kg/ha) | CHEAL herbicidal rating ([11]; rate 0.0320 kg/ha) | CHEAL herbicidal rating ([11]; rate 0.0620 kg/ha) | CASOB herbicidal rating ([12]; rate 0.0620 kg/ha) | AMBEL herbicidal rating ([13]; rate 0.0320 kg/ha) | AMBEL herbicidal rating ([13]; rate 0.0620 kg/ha) | ABUTH herbicidal rating ([14]; rate 0.0320 kg/ha) | ABUTH herbicidal rating ([14]; rate 0.0620 kg/ha) | GALAP herbicidal rating ([15]; rate 0.0320 kg/ha) | GALAP herbicidal rating ([15]; rate 0.0620 kg/ha) | ECHCG herbicidal rating ([16]; rate 0.0320 kg/ha) | ECHCG herbicidal rating ([16]; rate 0.0620 kg/ha) | Preemergence herbicidal rating IPOHE ([17]; rate 0.1250 kg/ha) | Preemergence herbicidal rating IPOHE ([17]; rate 0.2500 kg/ha) | SAGPY herbicidal rating ([18]; rate 0.1250 kg/ha) | CYPIR herbicidal rating ([21]; rate 0.1250 kg/ha)
6.0: Preemergence herbicidal rating GLXMA ([7]; rate 0.1250 kg/ha) | ECHORC herbicidal rating ([22]; rate 0.1250 kg/ha)
0.0: MOOVA herbicidal rating ([8]; rate 0.0320 kg/ha) | Preemergence herbicidal rating ZEAMX ([10]; rate 0.0620 kg/ha) | Preemergence herbicidal rating ZEAMX ([10]; rate 0.1250 kg/ha) | Preemergence herbicidal rating ZEAMX ([10]; rate 0.2500 kg/ha) | SAGPY herbicidal rating ([18]; rate 0.0320 kg/ha) | Preemergence herbicidal rating ECHCG ([19]; rate 0.0620 kg/ha) | Preemergence herbicidal rating ECHCG ([19]; rate 0.1250 kg/ha) | CYPIR herbicidal rating ([21]; rate 0.0320 kg/ha) | ECHORC herbicidal rating ([22]; rate 0.0320 kg/ha)
8.0: ORYSAT herbicidal rating (transplanted rice tolerance) ([1]; flooded paddy, post-transplant rice, rate 0.1250 kg/ha, rated 3-4 weeks after treatment, 0-9 rating scale) | ORYSAT herbicidal rating ([23]; rate 0.0620 kg/ha)
3.0: Preemergence herbicidal rating IPOHE ([17]; rate 0.0620 kg/ha)
5.5: ZEAMX herbicidal rating ([6]; rate 0.0320 kg/ha) | ZEAMX herbicidal rating ([6]; rate 0.0620 kg/ha) | TRZAWR herbicidal rating ([20]; rate 0.0320 kg/ha)
7.0: Preemergence herbicidal rating AMBEL ([4]; rate 0.1250 kg/ha) | Preemergence herbicidal rating GLXMA ([7]; rate 0.2500 kg/ha) | CASOB herbicidal rating ([12]; rate 0.0320 kg/ha)
7.5: TRZAWR herbicidal rating ([20]; rate 0.0620 kg/ha)
4.0: Preemergence herbicidal rating AMBEL ([4]; rate 0.0620 kg/ha) | Preemergence herbicidal rating GLXMA ([7]; rate 0.0620 kg/ha) | Preemergence herbicidal rating ECHCG ([19]; rate 0.2500 kg/ha) | ORYSAT herbicidal rating ([23]; rate 0.0320 kg/ha)

Source: patent publication US6706663B2, “Herbicidal 3-heterocyclic substituted benzisothiazole and benzisoxazole compounds” (Wyeth, priority 2000, dated 2004)
